# Measured values: patent US20070010671A1, “Novel quinazoline derivatives and methods of treatment related to the use thereof” (priority 2003, published 2007)
# Structures can show the parent of a compound that is named as a salt.
# Target: MCH receptor (Homo sapiens, UniProt Q99705)
# Assay: High throughput functional screening FLIPR/FDSS6000: inhibition of MCH-evoked intracellular Ca2+ changes
# Assay type: cell-based
# Details: antagonist activity, 50 nM of MCH, FLIPR or FDSS; read-out: IC50
# In short: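 Fluo4 fluorescence (Ex 488 nm, Em 530 nm) tracked MCH-evoked [Ca2+]i transients over 290 s by FLIPR or FDSS. Cells carried a constitutively active, non-endogenous receptor version. Compounds were added 3 min before a 50 nM MCH challenge.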
row,Structure (SMILES),IC50
1,"Cc1cccc(Oc2ncccc2C(=O)N[C@H]2CC[C@@H](Nc3nc(N(C)C)c4ccccc4n3)CC2)c1 [Example 898, N-(cis-4-{[4-(Dimethylamino)quinazolin-2-yl]amino}cyclohexyl)-2-(3-methylphenoxy)-nicotinamide trifluoroacetate]",3.3 nM

# Same assay, conditions: class by percent of control at 10^-7 M or IC50
row,Structure (SMILES),class
1,"CN(C)c1nc(N[C@H]2CC[C@@H](CNC(=O)Nc3ccc(F)cc3)CC2)nc2ccccc12 [compound 437, N-[(cis-4-{[4-(dimethylamino)quinazolin-2-yl]amino}cyclohexyl)methyl]-N′-(4-fluorophenyl)urea]",1 (Class 1: The value of percent of control at 10^−7 M was less than 40% or the value of IC50 was less than 50 nM.)
2,COc1ccc(CNC(=S)NC[C@H]2CC[C@@H](Nc3nc(N(C)C)c4ccccc4n3)CC2)cc1OC [compound 728],3 (Class 3: The value of percent of control at 10^−7 M was more than 60% or the value of IC50 was more than 200 nM.)
3,"COC(=O)c1ccccc1NC(=O)NC[C@H]1CC[C@@H](Nc2nc(N(C)C)c3ccccc3n2)CC1 [compound 470, methyl 2-[({[(cis-4-{[4-(dimethylamino)quinazoalin-2-yl]amino}cyclohexyl)methyl]amino}carbonyl)amino]benzoate]",3 (Class 3: The value of percent of control at 10^−7 M was more than 60% or the value of IC50 was more than 200 nM.)
4,"CC(C)c1ccc(NC(=S)N[C@H]2CC[C@@H](Nc3nc(N(C)C)c4ccccc4n3)CC2)c(Br)c1 [compound 363, N-(2-bromo-4-isopropylphenyl)-N′-(cis-4-{[4-(dimethylamino)quinazolin-2-yl]amino}cyclohexyl)thiourea]",2 (Class 2: The value of percent of control at 10^−7 M was from 40% to 60% or the value of IC50 was from 50 nM to 200 nM.)
5,CCOC(=O)c1ccc(NC(=S)NC[C@H]2CC[C@@H](Nc3nc(N(C)C)c4ccccc4n3)CC2)cc1 [compound 696],3 (Class 3: The value of percent of control at 10^−7 M was more than 60% or the value of IC50 was more than 200 nM.)
6,CCN(CC)c1ccc(NC(=S)N[C@H]2CC[C@@H](Nc3nc(N(C)C)c4ccccc4n3)CC2)cc1 [compound 393],3 (Class 3: The value of percent of control at 10^−7 M was more than 60% or the value of IC50 was more than 200 nM.)
7,C[C@@H](NC(=S)NC[C@H]1CC[C@@H](Nc2nc(N(C)C)c3ccccc3n2)CC1)c1ccccc1 [compound 749],3 (Class 3: The value of percent of control at 10^−7 M was more than 60% or the value of IC50 was more than 200 nM.)
8,CN(C)c1nc(N[C@H]2CC[C@@H](NC(=S)Nc3ccc(S(=O)(=O)N4CCCCC4)cc3)CC2)nc2ccccc12 [compound 357],3 (Class 3: The value of percent of control at 10^−7 M was more than 60% or the value of IC50 was more than 200 nM.)
9,"CCc1cccc(CC)c1NC(=O)NC[C@H]1CC[C@@H](Nc2nc(N(C)C)c3ccccc3n2)CC1 [compound 484, N-(2,6-diethylphenyl)-N′-[(cis-4-{[4-(dimethylamino)quinazolin-2-yl]amino}cyclohexyl)methyl]urea]",1 (Class 1: The value of percent of control at 10^−7 M was less than 40% or the value of IC50 was less than 50 nM.)
10,Cc1cc(F)ccc1NC(=S)NC[C@H]1CC[C@@H](Nc2nc(N(C)C)c3ccccc3n2)CC1 [compound 739],3 (Class 3: The value of percent of control at 10^−7 M was more than 60% or the value of IC50 was more than 200 nM.)
11,CCOC(=O)c1cccc(NC(=S)NC[C@H]2CC[C@@H](Nc3nc(N(C)C)c4ccccc4n3)CC2)c1 [compound 730],3 (Class 3: The value of percent of control at 10^−7 M was more than 60% or the value of IC50 was more than 200 nM.)
12,"COc1ccc(OC)c(CCNC(=S)N[C@H]2CC[C@@H](Nc3nc(N(C)C)c4ccccc4n3)CC2)c1 [compound 296, N-[2-(2,5-dimethoxyphenyl)ethyl]-N′-(cis-4-{[4-(dimethylamino)quinazolin-2-yl]amino}cyclohexyl)thiourea]",2 (Class 2: The value of percent of control at 10^−7 M was from 40% to 60% or the value of IC50 was from 50 nM to 200 nM.)
13,CN(C)c1nc(N[C@H]2CC[C@@H](CNC(=S)NCc3ccco3)CC2)nc2ccccc12 [compound 598],3 (Class 3: The value of percent of control at 10^−7 M was more than 60% or the value of IC50 was more than 200 nM.)
14,CCCCc1ccc(NC(=O)N[C@H]2CC[C@@H](Nc3nc(N(C)C)c4ccccc4n3)CC2)c(C)c1 [compound 346],1 (Class 1: The value of percent of control at 10^−7 M was less than 40% or the value of IC50 was less than 50 nM.)
15,CN(C)c1nc(N[C@H]2CC[C@@H](NC(=S)Nc3c(F)cccc3F)CC2)nc2ccccc12 [compound 213],3 (Class 3: The value of percent of control at 10^−7 M was more than 60% or the value of IC50 was more than 200 nM.)
16,"CC(NC(=O)NC[C@H]1CC[C@@H](Nc2nc(N(C)C)c3ccccc3n2)CC1)c1ccccc1 (relative stereo) [compound 465, N-[(cis-4-{[4-(dimethylamino)quinazolin-2-yl]amino}cyclohexyl)methyl]-N′-(1-phenylethyl)urea]",2 (Class 2: The value of percent of control at 10^−7 M was from 40% to 60% or the value of IC50 was from 50 nM to 200 nM.)

# Same assay, conditions: class by percent of control at 10^-7 M or by IC50; read-out: class
row,Structure (SMILES),IC50
1,Cc1ccc(Cl)c(NC(=O)N[C@H]2CC[C@@H](Nc3nc(N(C)C)c4ccccc4n3)CC2)c1 [compound 87],> 200 nM
2,C=CCOC(=O)NC[C@H]1CC[C@@H](Nc2nc(N(C)C)c3ccccc3n2)CC1 [compound 877],> 200 nM
3,CN(C)c1nc(N[C@H]2CC[C@@H](NC(=S)Nc3ccc(Cl)cc3)CC2)nc2ccccc12 [compound 164],50 to 200 nM
4,"Cc1cc(C)c(NC(=O)N[C@H]2CC[C@@H](Nc3nc(N(C)C)c4ccccc4n3)CC2)c(C)c1 [compound 58, N-(cis-4-{[4-(dimethylamino)quinazolin-2-yl]amino}cyclohexyl)-N′-mesitylurea]",< 50 nM
5,CCOc1ccc(NC(=S)N[C@H]2CC[C@@H](Nc3nc(N(C)C)c4ccccc4n3)CC2)cc1 [compound 172],> 200 nM
6,"CN(C)c1nc(N[C@H]2CC[C@@H](NC(=O)NC3c4ccccc4-c4ccccc43)CC2)nc2ccccc12 [compound 841, N-(cis-4-{[4-(dimethylamino)quinazolin-2-yl]amino}cyclonexyl)-N′-9H-fluoren-9-ylurea]",50 to 200 nM

# Same assay, conditions: class by percent of control at 10^−7 M or by IC50; read-out: class
row,Structure (SMILES),IC50
1,"CN(C)c1nc(N[C@H]2CC[C@@H](NC(=O)c3ccc(Oc4ccccc4F)nc3)CC2)nc2ccccc12 [Example 1050, N-(cis-4-{[4-(dimethylamino)quinazolin-2-yl]amino}cyclohexyl)-6-(2-fluorophenoxy)nicotinamide]",< 50 nM
2,"CN(C)c1nc(N[C@H]2CC[C@@H](C(=O)NCc3ccccc3Br)CC2)nc2cc(F)c(F)cc12 [Example 1003, cis-N-(2-bromobenzyl)-4-{[4-(dimethylamino)-6,7-difluoroquinazolin-2-yl]amino}cyclohexanecarboxamide]",< 50 nM
3,"COc1ccc(NC(=O)NC[C@H]2CC[C@@H](Nc3nc(N(C)C)c4ccccc4n3)CC2)cc1OC [Example 1018, N-(3,4-dimethoxyphenyl)-N′-[(cis-4-{[4-(dimethylamino)quinazolin-2-yl]amino}cyclohexyl)methyl]urea]",> 200 nM
4,"COc1cccc([C@@H](C)NC(=O)[C@H]2CC[C@@H](Nc3nc(N(C)C)c4ccccc4n3)CC2)c1 [Example 1137, cis-4-{[4-(dimethylamino)quinazolin-2-yl]amino}-N-[(1R)-1-(3-methoxyphenyl)ethyl]cyclohexanecarboxamide]",< 50 nM
5,"CN(C)c1nc(N[C@H]2CC[C@@H](C(=O)Nc3ccc(Cl)nc3)CC2)nc2ccccc12 [Example 1196, cis-N-(6-chloropyridin-3-yl)-4-{[4-(dimethylamino)quinazolin-2-yl]amino}cyclohexanecarboxamide]",< 50 nM
6,"CN(C)c1nc(N[C@H]2CC[C@@H](NC(=O)c3ccc(Oc4ccc(Cl)c(F)c4)nc3)CC2)nc2ccccc12 [Example 1069, 6-(4-chloro-3-fluorophenoxy)-N-(cis-4-{[4-(dimethylamino)quinazolin-2-yl]amino}cyclohexyl)nicotinamide]",< 50 nM
7,"CN(C)c1nc(N[C@H]2CC[C@@H](NC(=O)c3cccnc3Oc3cccc(F)c3)CC2)nc2ccccc12 [Example 1034, N-(cis-4-{[4-(dimethylamino)quinazolin-2-yl]amino}cyclohexyl)-2-(3-fluorophenoxy)nicotinamide]",< 50 nM
8,"CN(C)c1nc(N[C@H]2CC[C@@H](NC(=O)c3ccc(Oc4cccc(F)c4F)nc3)CC2)nc2ccccc12 [Example 1064, 6-(2,3-difluorophenoxy)-N-(cis-4-{[4-(dimethylamino)quinazolin-2-yl]amino}cyclohexyl)nicotinamide]",< 50 nM
9,"CN(C)c1nc(N[C@H]2CC[C@@H](CNC(=O)Nc3ccc(Cl)c(Cl)c3)CC2)nc2ccccc12 [Example 1026, N-(3,4-dichlorophenyl)-N′-[(cis-4-{[4-(dimethylamino)quinazolin-2-yl]amino}cyclohexyl)methyl]urea]",50 to 200 nM
10,"CN(C)c1nc(N[C@H]2CC[C@@H](NC(=O)c3ccc(Oc4ccc(OC(F)(F)F)cc4)nc3)CC2)nc2ccccc12 [Example 1062, N-(cis-4-{[4-(dimethylamino)quinazolin-2-yl]amino}cyclohexyl)-6-[4-(trifluoromethoxy)phenoxy]nicotinamide]",> 200 nM
11,"CN(C)c1nc(N[C@H]2CC[C@@H](CNC(=O)c3ccc(C(F)(F)F)cc3F)C2)nc2ccccc12 [Example 1125, N-[((1R,3S)-3-{[4-(dimethylamino)quinazolin-2-yl]amino}-cyclopentyl)methyl]-2-fluoro-4-(trifluoromethyl)benzamide]",> 200 nM
